Patent publication US7429607B2, “5-HT2B receptor antagonists” (Asterand UK Limited, priority 2002, dated 2008)

Tests used:
[1] = target: T1, human cloned 5-HT2B receptors (Homo sapiens, UniProt P41595); assay: Human cloned 5-HT2B receptor binding assay ([3H]LSD, CHO-K1 membranes); conditions: displacement of [3H]LSD (1 nM), read-out: 5-HT2B pKi (converted)
T1 construct: expressed in transfected cells; host or cells: CHO-K1 cells
Description: The binding affinity of the compounds for human cloned 5-HT2B receptors was determined using the following assay.
CHO-K1 cells expressing cloned 5-HT2B receptor were maintained in Ultra-CHO medium containing 400 μg/ml of G418, 100 U/ml penicillin, 100 μg/ml streptomycin, 2.5 μg/ml fungizone and 1% foetal bovine serum, in 95/5% O2/CO2 at 37° C. The cells were harvested using 0.25% trypsin and were centrifuged at 800 rpm for 8 minutes. The cells were homogenised in 50 mM HEPES buffer containing 1 mM disodium EDTA and 1 mM PMSF at pH 7.4, using a Dounce homogeniser (20 strokes). The homogenate was centrifuged at 2280 rpm (1000 g) and 4° C. for 10 minutes, after which the supernatant was removed by decanting. The pellet was re-homogenised as above, and the resulting supernatant removed and combined with that already obtained. The supernatant solution was then centrifuged at 18300 rpm (40000 g) for 10 minutes at 4° C. using a Sorvall centrifuge. The supernatant was removed, and the pellet was re-suspended in 50 mM buffer at pH 7.4 using a Ultra-turrax T25 Polytron, before centrifugation again at 40000 g as above. This wash procedure was repeated, after which the membrane preparation was stored at a concentration of 1 mg/ml at −80° C. until use.
The membranes were thawed rapidly and diluted in assay buffer containing Tris-HCl (50 mM, pH 7.4), ascorbic acid (0.1%) and calcium chloride (4 mM). The membranes were homogenised to resuspend them, prior to adding 10 or 15 μg of membranes to assay wells containing [^3H]LSD (1 nM), assay buffer (50 mM Tris, 4 mM calcium chloride and 0.1% ascorbic acid) containing pargyline (10 μM), and the test compounds (1×10^−10 to 1×10^−4M). Non specific binding was determined in the presence of 100 μM 5-HT. After 30 minutes incubation at 37° C., the assay mixture was filtered through a combination of GF-C and GF-B filters, pre-soaked in 1% polyethyleneimine, using a Brandel cell harvester, and were washed three times using 50 mM Tris-HCl. Radioactivity retained on the filters was determined by liquid scintillation counting. For each test compound, the concentration that inhibited binding of [3H]LSD by 50% was determined using curve fitting software (Prism). Kd values (concentration of LSD required to occupy 50% of the receptor binding sites at equilibrium) determined from saturation binding studies were then used to calculate inhibition dissociation constants (Ki) using the following equation: […]
This approach follows that set out in Kenakin, T.P. Pharmacologic analysis of drug-receptor interaction. Raven Press, New York, 2nd Edition.

[2] = target: T2, cloned human 5-HT2A receptor (Homo sapiens, UniProt P28223); assay: Human 5-HT2A receptor binding assay ([3H]ketanserin, CHO-K1 membranes); conditions: displacement of [3H]ketanserin (1 nM), read-out: 5-HT2A pKi (converted)
T2 construct: purchased Euroscreen; host or cells: CHO-K1 cells
Description: (§1) The binding affinity of ligands for human 5-HT2A and 5-HT2C receptors was determined using the following assay.
Membrane preparations from CHO-K1 cells expressing the cloned human 5-HT2A receptor were obtained (Euroscreen). The membranes were thawed rapidly and diluted in assay buffer containing Tris-HCl (50 mM, pH 7.7). The membranes were resuspended by homogenisation, prior to adding 15 μg of membranes to assay wells containing [3H] ketanserin (1 nM), assay buffer (50 mM Tris at pH 7.4) containing pargyline (10 μM), and test compounds (1×10^−10 to 1×10^−4M). Non specific binding was determined in the presence of 100 μM mianserin. After 15 minutes incubation at 37° C., the assay mixture was filtered through a combination of GF-C and GF-B filters, pre-soaked in 0.05% Brij, using a Brandel cell harvester, and were washed three times using ice cold Tris-HCl buffer (50 mM). Radioactivity retained on the filters was determined by liquid scintillation counting. For each test compound, the concentration that inhibited binding of [^3H]ketanserin by 50% was determined using curve fitting software (Prism). Kd values (concentration of ketanserin required to occupy 50% of the receptor binding sites at equlibrium) determined from saturation binding studies were then used to calculate inhibition dissociation constants (Ki) using the following equation: […]

[3] = target: T3, cloned human 5-HT2C receptor (Homo sapiens, UniProt P28335); assay: Human 5-HT2C receptor binding assay ([3H]mesulergine, CHO-K1 membranes); conditions: displacement of [3H]mesulergine (1 nM), read-out: 5-HT2C pKi (converted)
T3 construct: purchased Euroscreen; host or cells: CHO-K1 cells
T3 sequence (P28335 33-458): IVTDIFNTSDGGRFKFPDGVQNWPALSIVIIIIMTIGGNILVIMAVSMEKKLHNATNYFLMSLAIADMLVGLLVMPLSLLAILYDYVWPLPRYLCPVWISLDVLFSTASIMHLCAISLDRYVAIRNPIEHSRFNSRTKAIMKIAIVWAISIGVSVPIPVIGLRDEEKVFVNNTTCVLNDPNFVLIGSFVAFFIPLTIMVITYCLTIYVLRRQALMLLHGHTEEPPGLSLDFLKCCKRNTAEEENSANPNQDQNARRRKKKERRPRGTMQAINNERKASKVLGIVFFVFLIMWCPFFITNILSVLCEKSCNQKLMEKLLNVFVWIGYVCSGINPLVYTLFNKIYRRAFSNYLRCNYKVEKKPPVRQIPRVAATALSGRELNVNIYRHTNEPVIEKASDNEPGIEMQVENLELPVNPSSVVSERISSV
Description: as §1
Membrane preparations from CHO-K1 cells expressing the cloned human 5-HT2C receptor were obtained (Euroscreen). The membranes were thawed rapidly and diluted in assay buffer containing Tris-HCl (50 mM, pH 7.7), ascorbic acid (0.1%) and pargyline (10 μM). The membranes were resuspended by homogenisation, prior to adding 6 μg of membranes to assay wells containing [^3H] mesulergine (1 nM), assay buffer (50 mM Tris at pH 7.7 and 0.1% ascorbic acid) containing pargyline (10 μM), and test compounds (1×10^−10 to 1×10^−4M). Non specific binding was determined in the presence of 100 μM mianserin. After 30 minutes incubation at 37° C., the assay mixture was filtered through a combination of GF-C and GF-B filters, pre-soaked in 1% bovine serum albumin, using a Brandel cell harvester, and were washed three times using ice cold Tris-HCl buffer (50 mM). Radioactivity retained on the filters was determined by liquid scintillation counting. For each test compound, the concentration that inhibited binding of [3H]mesulergine by 50% was determined using curve fitting software (Prism). Kd values (concentration of mesulergine required to occupy 50% of the receptor binding sites at equlibrium) determined from saturation binding studies were then used to calculate inhibition dissociation constants (Ki) using the following equation: […]

T2 sequence (P28223 whole entry): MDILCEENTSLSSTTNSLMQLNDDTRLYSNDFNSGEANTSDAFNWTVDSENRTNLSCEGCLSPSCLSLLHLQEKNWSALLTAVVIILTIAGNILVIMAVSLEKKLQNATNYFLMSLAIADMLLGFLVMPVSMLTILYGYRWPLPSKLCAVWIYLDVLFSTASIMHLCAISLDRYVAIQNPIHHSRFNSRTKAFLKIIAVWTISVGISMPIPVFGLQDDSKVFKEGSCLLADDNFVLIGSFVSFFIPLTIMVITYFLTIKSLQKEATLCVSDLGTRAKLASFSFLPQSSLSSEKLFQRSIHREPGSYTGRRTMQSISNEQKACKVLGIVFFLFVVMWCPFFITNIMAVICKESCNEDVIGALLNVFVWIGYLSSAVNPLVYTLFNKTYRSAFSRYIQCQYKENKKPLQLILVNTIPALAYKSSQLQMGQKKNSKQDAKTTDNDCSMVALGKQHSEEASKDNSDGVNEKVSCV
T1 sequence (P41595 whole entry): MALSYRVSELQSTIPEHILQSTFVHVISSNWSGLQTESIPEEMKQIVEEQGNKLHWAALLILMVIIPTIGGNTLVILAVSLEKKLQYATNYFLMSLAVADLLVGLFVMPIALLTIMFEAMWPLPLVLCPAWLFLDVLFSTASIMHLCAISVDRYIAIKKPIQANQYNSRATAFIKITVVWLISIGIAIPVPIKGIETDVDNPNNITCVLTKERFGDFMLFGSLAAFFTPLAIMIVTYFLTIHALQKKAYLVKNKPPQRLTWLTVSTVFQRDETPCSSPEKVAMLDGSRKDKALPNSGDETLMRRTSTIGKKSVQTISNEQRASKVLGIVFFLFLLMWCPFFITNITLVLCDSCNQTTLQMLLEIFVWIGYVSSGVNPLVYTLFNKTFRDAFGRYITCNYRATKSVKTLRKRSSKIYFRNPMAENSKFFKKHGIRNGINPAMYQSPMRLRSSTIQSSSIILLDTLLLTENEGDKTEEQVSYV

Ki [1] [nM]	SMILES	Ki [2] [µM]	Ki [3] [nM]	melting point [°C]
< 1000	Nc1nc(-c2ccc3c(c2)OCCO3)co1 [Compound 14, 4-(2,3-dihydro-benzo[1,4]dioxin-6-yl)-oxazol-2-ylamine]	> 10	> 10000	
< 10000	N#Cc1ccc2cccc(-c3coc(N)n3)c2c1 [Compound 20, 4-(7-carbonitrile-naphthalen-1-yl)-oxazol-2-ylamine]	> 10	> 10000	
< 100	Nc1nc(-c2c(O)ccc3ccccc23)co1 [Compound 22, 1-(2-amino-oxazol-4-yl)-naphthalen-2-ol]	> 1		
< 1000	COC(=O)COc1ccc2ccccc2c1-c1coc(N)n1 [Compound 23, [1-(2-amino-oxazol-4-yl)-naphthalen-2-yloxy]-acetic acid methyl ester]		> 10000	
< 100	CC(=O)OCc1nc(N)oc1-c1cccc2ccccc12 [Compound 28, acetic acid 2-amino-5-naphthalen-1-yl-oxazol-4-ylmethyl ester]	> 10		
< 100	Nc1nc(CO)c(-c2cccc3ccccc23)o1 [Compound 29, (2-amino-5-naphthalen-1-yl-oxazol-4-yl)-methanol]		> 1000	

More lines, now with the values behind:

SMILES	Ki [1] [nM]	Ki [2] [µM]	Ki [3] [nM]	melting point [°C]
Nc1nc(-c2ccc(F)c3ccccc23)co1 [Compound 4, 2-amino-4-(4′-fluoronaphth-1-yl)oxazole]	< 100	> 1	> 1000	171 to 174
Nc1nc(-c2cccc3ccc(Br)cc23)co1 [Compound 5, 2-amino-4-(7′-bromonaphth-1-yl)oxazole]	< 100	> 1	> 1000	189 to 190
CCOc1ccc2ccccc2c1-c1coc(N)n1 [Compound 10, 4-(2-ethoxy-naphthalen-1-yl)-oxazol-2-ylamine]	< 10	> 1	> 1000	
COc1ccc(-c2coc(N)n2)c2ccccc12 [Compound 11, 4-(4-methoxy-naphthalen-1-yl)-oxazol-2-ylamine]	< 100	> 10	> 10000	
Nc1nc(-c2c(OCc3ccccc3)ccc3ccccc23)co1 [Compound 12, 4-(2-benzyloxy-naphthalen-1-yl)-oxazol-2-ylamine]	< 1000			
Cc1c(-c2coc(N)n2)sc2ccccc12 [Compound 13, 4-(3-methyl-benzo[b]thiophen-2-yl)-oxazol-2-ylamine]	< 1000	> 10	> 1000	
Nc1nc(-c2cccc3sccc23)co1 [Compound 15, 4-benzo[b]thiophen-4-yl-oxazol-2-ylamine]	< 1000	> 1	> 1000	
COc1c(-c2coc(N)n2)ccc2ccccc12 [Compound 18, 4-(1-methoxy-naphthalen-2-yl)-oxazol-2-ylamine]	< 1000	> 10	> 10000	
Nc1nc(-c2cccc3c(Br)cccc23)co1 [Compound 19, 4-(5-bromo-naphthalen-1-yl)-oxazol-2-ylamine]	< 10000	> 10	> 1000	
N#Cc1cccc2c(-c3coc(N)n3)cccc12 [Compound 21, 4-(5-carbonitrile-naphthalen-1-yl)-oxazol-2-ylamine]	< 10000	> 10	> 1000	
NC(=O)c1ccc2cccc(-c3coc(N)n3)c2c1 [Compound 24, 8-(2-amino-oxazol-4-yl)-naphthalene-2-carboxylic acid amide]	< 10000	> 10	> 10000	
COc1ccc2ccccc2c1-c1oc(N)nc1C [Compound 26, 5-(2-methoxy-naphthalen-1-yl)-4-methyl-oxazol-2-ylamine]	< 10	> 1		
Cc1oc(N)nc1-c1cccc2ccccc12 [Compound 30, 5-Methyl-4-naphthalen-1-yl-oxazol-2-ylamine]	< 100	> 10		
